These results are taken from patent US20260184693A1, “INHIBITORS OF SOLUTE CARRIER FAMILY 6A MEMBER 19 (SLC6A19) AND METHODS OF USE THEREOF” (Maze Therapeutics, Inc., priority 2022, published 2026).

SMILES strings stand for the structures.

The experiment deals with T1, human SLC6A19 (Homo sapiens, UniProt Q695T7).
T1 construct: expressed in transfected cells
T1 sequence (Q695T7 1-634): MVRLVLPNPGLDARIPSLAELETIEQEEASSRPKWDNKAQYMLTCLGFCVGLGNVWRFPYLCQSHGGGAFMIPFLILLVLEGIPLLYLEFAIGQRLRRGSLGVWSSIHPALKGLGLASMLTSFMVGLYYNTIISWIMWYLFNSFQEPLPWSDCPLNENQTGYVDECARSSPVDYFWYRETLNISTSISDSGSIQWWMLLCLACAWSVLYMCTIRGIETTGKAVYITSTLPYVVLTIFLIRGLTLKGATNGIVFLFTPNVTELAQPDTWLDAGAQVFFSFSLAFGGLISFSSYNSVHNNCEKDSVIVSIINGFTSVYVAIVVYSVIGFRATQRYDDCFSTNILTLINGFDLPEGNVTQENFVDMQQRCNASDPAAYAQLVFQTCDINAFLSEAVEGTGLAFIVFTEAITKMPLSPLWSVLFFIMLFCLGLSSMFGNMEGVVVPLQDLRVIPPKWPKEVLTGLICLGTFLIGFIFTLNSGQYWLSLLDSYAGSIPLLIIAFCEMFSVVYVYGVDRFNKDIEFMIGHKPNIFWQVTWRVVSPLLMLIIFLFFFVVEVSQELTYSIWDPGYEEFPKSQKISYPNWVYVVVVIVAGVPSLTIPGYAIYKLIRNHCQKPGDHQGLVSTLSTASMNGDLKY
T1 sequence (Q9HBJ8 15-222 partner): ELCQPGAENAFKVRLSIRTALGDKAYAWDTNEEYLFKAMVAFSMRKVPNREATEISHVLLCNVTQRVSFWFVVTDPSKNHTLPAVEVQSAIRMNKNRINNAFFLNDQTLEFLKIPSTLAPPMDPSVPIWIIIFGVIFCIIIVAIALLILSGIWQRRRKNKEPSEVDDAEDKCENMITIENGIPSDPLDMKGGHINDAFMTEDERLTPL
In words: Example B2: 13C6,15N-isoleucine uptake, RapidFire mass spectrometry, in CHO cells with doxycycline-inducible expression of human SLC6A19 and TMEM27. Particulars: read-out: SLC6A19_RapidFire Uptake Assay IC50. The format is cell-based. In short, it runs like this: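 Labelled isoleucine (13C6,15N; 2 mM added) was given 20 min at 37 °C, following a 20-min compound pre-treatment (10-point 2-fold series, duplicate). Cells were doxycycline-induced CHO co-expressing human SLC6A19 and TMEM27. Intracellular label was quantified by RapidFire-MS peak areas against a 13C-leucine standard.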

Broadly, the IC50 is the concentration that gives 50% inhibition. In the case of `CN(C(=O)NCc1cc2cc(Cl)ccc2[nH]1)[C@@H]1CCCN(C(=O)N2CCC2)C1` [Compound 173, (R)-1-(1-(azetidine-1-carbonyl)piperidin-3-yl)-3-((5-chloro-1H-indol-2-yl)methyl)-1-methylurea], the IC50 worked out at 314 nM.
`CC(=O)N1CCC[C@@H](N(C)C(=O)NCc2cc3cc(C)c(C#N)cc3[nH]2)C1` [Compound 174, (R)-1-(1-acetylpiperidin-3-yl)-3-((6-cyano-5-methyl-1H-indol-2-yl)methyl)-1-methylurea]: the concentration for half-maximal inhibition (IC50) amounted to 2790 nM.
As to `CC(=O)N1CCC[C@@H](N(C)C(=O)NCc2cc3cc(C)cc(CO)c3[nH]2)C1` [Compound 175, (R)-1-(1-acetylpiperidin-3-yl)-3-((7-(hydroxymethyl)-5-methyl-1H-indol-2-yl)methyl)-1-methylurea], the IC50 came to 20900 nM.
For `CC(=O)N1CCC[C@@H](N(C)C(=O)NCc2[nH]c3ccc(Cl)cc3c2Cl)C1` [Compound 176, (R)-1-(1-acetylpiperidin-3-yl)-3-((3,5-dichloro-1H-indol-2-yl)methyl)-1-methylurea] the value was 30.7 nM.
To `Cc1cc(N2CCC[C@@H](N(C)C(=O)NCc3cc4cc(Cl)ccc4[nH]3)C2)no1` [Compound 177, (R)-3-((5-chloro-1H-indol-2-yl)methyl)-1-methyl-1-(1-(5-methylisoxazol-3-yl)piperidin-3-yl)urea] belongs 122 nM; to `CNc1cc(Cl)cc2cc(CNC(=O)N(C)[C@@H]3CCCN(C(C)=O)C3)[nH]c12` [Compound 178, (R)-1-(1-acetylpiperidin-3-yl)-3-((5-chloro-7-(methylamino)-1H-indol-2-yl)methyl)-1-methylurea], 1570 nM; to `COc1cc2[nH]c(CNC(=O)N(C)[C@@H]3CCCN(C(C)=O)C3)cc2cc1C` [Compound 179, (R)-1-(1-acetylpiperidin-3-yl)-3-((6-methoxy-5-methyl-1H-indol-2-yl)methyl)-1-methylurea], 1210 nM.
For `CN(C(=O)NCc1cc2cc(Cl)ccc2[nH]1)[C@@H]1CCCN(C(=O)C(C)(C)O)C1` [Compound 180, (R)-3-((5-chloro-1H-indol-2-yl)methyl)-1-(1-(2-hydroxy-2-methylpropanoyl)piperidin-3-yl)-1-methylurea] the value was 2790 nM; for `CN(C(=O)NCc1cc2cc(Cl)ccc2[nH]1)[C@@H]1CCCN(C(=O)N2CCCC2)C1` [Compound 181, (R)-3-((5-chloro-1H-indol-2-yl)methyl)-1-methyl-1-(1-(pyrrolidine-1-carbonyl)piperidin-3-yl)urea], 795 nM; for `CC(=O)N1CCC[C@@H](N(C)C(=O)NCc2cc3cc(Cl)c(C#N)cc3[nH]2)C1` [Compound 182, (R)-1-(1-acetylpiperidin-3-yl)-3-((5-chloro-6-cyano-1H-indol-2-yl)methyl)-1-methylurea], 2930 nM.
Regarding `C[C@H](O)C(=O)N1CCC[C@@H](N(C)C(=O)NCc2cc3cc(Cl)ccc3[nH]2)C1` [Compound 183, 3-((5-chloro-1H-indol-2-yl)methyl)-1-((R)-1-((S)-2-hydroxypropanoyl)piperidin-3-yl)-1-methylurea], the IC50 amounted to 852 nM.
With `CC(=O)N1CCC[C@@H](N(C)C(=O)NCc2cc3[nH]ccc3cc2F)C1` [Compound 184, (R)-1-(1-acetylpiperidin-3-yl)-3-((5-fluoro-1H-indol-6-yl)methyl)-1-methylurea], the concentration for half-maximal inhibition (IC50) came out at 3970 nM.
To `CC(=O)N1CCC(C(=O)N2CCC[C@@H](N(C)C(=O)NCc3cc4cc(Cl)ccc4[nH]3)C2)C1` (stereo partly drawn) [Compound 185, 1-((3R)-1-(1-acetylpyrrolidine-3-carbonyl)piperidin-3-yl)-3-((5-chloro-1H-indol-2-yl)methyl)-1-methylurea] belongs 4400 nM; to `C[C@@H](O)C(=O)N1CCC[C@@H](N(C)C(=O)NCc2cc3cc(Cl)ccc3[nH]2)C1` [Compound 186, 3-((5-chloro-1H-indol-2-yl)methyl)-1-((R)-1-((R)-2-hydroxypropanoyl)piperidin-3-yl)-1-methylurea], 5600 nM.
For `CC(=O)N1CCC[C@@H](N(C)C(=O)NCc2ccc3c(C)c[nH]c3c2)C1` [Compound 223, (R)-1-(1-acetylpiperidin-3-yl)-1-methyl-3-((3-methyl-1H-indol-6-yl)methyl)urea] the value was 4670 nM; for `COc1ccc2[nH]c(CNC(=O)N(C)[C@@H]3CCCN(C(C)=O)C3)cc2c1` [Compound 224, (R)-1-(1-acetylpiperidin-3-yl)-3-((5-methoxy-1H-indol-2-yl)methyl)-1-methylurea], 1650 nM; for `CC(=O)N1CCC[C@@H](N(C)C(=O)NCc2ccc3c(C)c(C)[nH]c3c2)C1` [Compound 225, (R)-1-(1-acetylpiperidin-3-yl)-3-((2,3-dimethyl-1H-indol-6-yl)methyl)-1-methylurea], 2960 nM.
To `CC(=O)N1CCC[C@@H](N(C)C(=O)NCc2cc3cc(Cl)c(C)cc3[nH]2)C1` [Compound 226, (R)-1-(1-acetylpiperidin-3-yl)-3-((5-chloro-6-methyl-1H-indol-2-yl)methyl)-1-methylurea] belongs 209 nM; to `CC(=O)N1CCC[C@@H](N(C)C(=O)NCc2cc3cc(Cl)cc(C)c3[nH]2)C1` [Compound 227, (R)-1-(1-acetylpiperidin-3-yl)-3-((5-chloro-7-methyl-1H-indol-2-yl)methyl)-1-methylurea], 327 nM.
On to `CC(=O)N1CCC[C@@H](N(C)C(=O)NCc2cc3cc(C#N)ccc3[nH]2)C1` [Compound 228, (R)-1-(1-acetylpiperidin-3-yl)-3-((5-cyano-1H-indol-2-yl)methyl)-1-methylurea], for which the IC50 amounted to 2210 nM.
Regarding `CC(=O)N1CCC[C@@H](N(C)C(=O)NCc2[nH]c3ccc(Cl)cc3c2C)C1` [Compound 229, (R)-1-(1-acetylpiperidin-3-yl)-3-((5-chloro-3-methyl-1H-indol-2-yl)methyl)-1-methylurea], the IC50 was found to be 108 nM.
For `CC(=O)N1CCC[C@@H](N(C)C(=O)NCc2cc3cc(Cl)cc(CO)c3[nH]2)C1` [Compound 230, (R)-1-(1-acetylpiperidin-3-yl)-3-((5-chloro-7-(hydroxymethyl)-1H-indol-2-yl)methyl)-1-methylurea] the value was 12800 nM; for `CC(=O)N1CCC[C@@H](N(C)C(=O)NCc2cc3cc(Cl)cc(O)c3[nH]2)C1` [Compound 231, (R)-1-(1-acetylpiperidin-3-yl)-3-((5-chloro-7-hydroxy-1H-indol-2-yl)methyl)-1-methylurea], 1060 nM.
